Data as given in US4959493A, “Carboxycyclopropylglycine and process for producing the same” (Suntory Limited, priority 1987, dated 1990).
Where two headings read alike, the source gives them in different places.

Assays:
[1] = isolated from Aesculus parviflora and Blighia sapida; Fowden et al. 1969; cited from earlier work
[2] = tested on: motoneurons in the isolated spinal cord of a neonatal rat; test: Depolarization of motoneurons in the isolated spinal cord of a neonatal rat (extracellular records, Evans and Watkins method); assay type: cell-based; conditions: for Effect of Mg++ ions on depolarizing activity: in the presence of Mg++ ions; for minimal effective concentration: read-out: MEC (minimum effective concentration for causing depolarizations of motoneurons); for Agonist type (glutamate receptor subtype): isolated new-born rat spinal cord; for Specific activity: relative to L-glutamic acid = 1
Procedure: In accordance with the method described in Evans, R. H. and Watkins, J. C., European J. Pharmac., 50 123-129, 1978, the minimum effective concentrations (MEC) of L-glutamic acid and compounds (1), (1a), (1b) and (1c) of the present invention for causing depolarizations of motoneurons in the isolated spinal cord of a neonatal rat under perfusion with an artificial physiological solution ([…] fluid) were measured as extracellular records in the […] root.

[3] = isolated neonatal rat spinal cord perfused with artificial physiological solution, (-) = Ineffective

Row | Compound | Undesired effects [1] | Effect of Mg++ ions on depolarizing activity [2] | minimal effective concentration [2, 3] [µM] | Agonist type (glutamate receptor subtype) [2] | Specific activity ([2]; (-) = Ineffective) | Potency relative to NMDA ([2]; compared with NMDA activity of 2×10^-5 molar) [times] | minimal effective concentration ([2]; Rattus norvegicus) [µM]
1 | N[C@H](C(=O)O)[C@H]1C[C@@H]1C(=O)O [(1a), (2S,3S,4S)-carboxycyclopropylglycine] | hypoglycemia and vomiting | Unaffected | 50 | agonist of the kainate type | 5 |  | 
2 | N[C@H](C(=O)O)[C@H]1C[C@H]1C(=O)O [(1c), (2S,3S,4R)-carboxycyclopropylglycine] | hypoglycemia and vomiting |  | 500 |  | 0.5 |  | 
3 | N[C@H](C(=O)O)[C@@H]1C[C@@H]1C(=O)O [Compound (1), (2S,3R,4S)-carboxycyclopropylglycine] |  | activity disappeared | 1 | agonist of the NMDA type | 100 | 5 | 
4 | N[C@@H](CCC(=O)O)C(=O)O [L-Glu, L-glutamic acid, reference compound] |  |  |  |  | 1 |  | 100
